Patent US12077503B2, “Substituted cyclic amides and their use as herbicides” (FMC CORPORATION, priority 2015, dated 2024)

Key:
Type in all cases: in vivo
[1] = system: velvetleaf (Abutilon theophrasti); assay: Test G Pre-Emergence Protocol; conditions: Abutilon theophrasti, pre-emergence, 312 h, evaluated after 13 days; for pest or weed control at 15.625 g/ha: 15.625 g ai/ha; for pest or weed control at 15.625 g/ha / pest or weed control at 250 g/ha: read-out: Velvetleaf damage rating (100=total damage to plant; 0=no damage to plant); for pest or weed control at 62.5 g/ha: 62.5 g ai/ha, 100=total damage to plant, 0=no damage to plant, read-out: Velvetleaf damage rating; for pest or weed control at 250 g/ha: 250 g ai/ha
Method in brief: (§1)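 Herbicidal effect was rated 13 days post-application on a scale where 100 equals total damage. Spraying took place the day after sowing, using 15.625, 62.5 or 250 g/ha of compound in a 50:50 acetone/water solution with 0.5% Tween 20.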

[2] = system: corn (Zea mays); assay: Test G Pre-Emergence Protocol; conditions: Zea mays, pre-emergence, 312 h, evaluated after 13 days; for plant injury at 15.625 g/ha: 15.625 g ai/ha; for plant injury at 15.625 g/ha / plant injury at 250 g/ha: read-out: Corn damage rating (100=total damage to plant; 0=no damage to plant); for plant injury at 62.5 g/ha: 62.5 g ai/ha, 100=total damage to plant, 0=no damage to plant, read-out: Corn damage rating; for plant injury at 250 g/ha: 250 g ai/ha
Method in brief: as §1

[3] = system: redroot pigweed (Amaranthus retroflexus); assay: Test G Pre-Emergence Protocol; conditions: Amaranthus retroflexus, pre-emergence, 312 h, evaluated after 13 days; for pest or weed control at 15.625 g/ha: 15.625 g ai/ha; for pest or weed control at 15.625 g/ha / pest or weed control at 250 g/ha: read-out: Pigweed, Redroot damage rating (100=total damage to plant; 0=no damage to plant); for pest or weed control at 62.5 g/ha: 62.5 g ai/ha, 100=total damage to plant, 0=no damage to plant, read-out: Pigweed, Redroot damage rating; for pest or weed control at 250 g/ha: 250 g ai/ha
Method in brief: as §1

[4] = system: giant foxtail (Setaria faberi); assay: Test G Pre-Emergence Protocol; conditions: Setaria faberi, pre-emergence, 312 h, evaluated after 13 days; for pest or weed control at 15.625 g/ha: 15.625 g ai/ha; for pest or weed control at 15.625 g/ha / pest or weed control at 250 g/ha: read-out: Foxtail, Giant damage rating (100=total damage to plant; 0=no damage to plant); for pest or weed control at 62.5 g/ha: 62.5 g ai/ha, 100=total damage to plant, 0=no damage to plant, read-out: Foxtail, Giant damage rating; for pest or weed control at 250 g/ha: 250 g ai/ha
Method in brief: as §1

[5] = system: barnyardgrass (Echinochloa crus-galli); assay: Test G Pre-Emergence Protocol; conditions: Echinochloa crus-galli, pre-emergence, 312 h, evaluated after 13 days; for pest or weed control at 15.625 g/ha: 15.625 g ai/ha; for pest or weed control at 15.625 g/ha / pest or weed control at 250 g/ha: read-out: Barnyardgrass damage rating (100=total damage to plant; 0=no damage to plant); for pest or weed control at 62.5 g/ha: 62.5 g ai/ha, 100=total damage to plant, 0=no damage to plant, read-out: Barnyardgrass damage rating; for pest or weed control at 250 g/ha: 250 g ai/ha
Method in brief: as §1

[6] = system: ivy-leaved morning glory (Ipomoea hederacea); assay: Test G Pre-Emergence Protocol; conditions: Ipomoea, pre-emergence, 312 h, evaluated after 13 days; for pest or weed control at 62.5 g/ha: 62.5 g ai/ha, 100=total damage to plant, 0=no damage to plant, read-out: Morningglory, Ivy-leaved damage rating; for pest or weed control at 250 g/ha: 250 g ai/ha; for pest or weed control at 250 g/ha / pest or weed control at 15.625 g/ha: read-out: Morningglory, Ivy-leaved damage rating (100=total damage to plant; 0=no damage to plant); for pest or weed control at 15.625 g/ha: 15.625 g ai/ha
Method in brief: as §1

[7] = system: velvetleaf (Abutilon theophrasti); assay: Test G Post-Emergence Protocol; conditions: Abutilon theophrasti, post-emergence, 312 h, read-out: Velvetleaf damage rating; for pest or weed control at 15.625 g/ha: 15.625 g ai/ha, evaluated after 13 days (100=total damage to plant; 0=no damage to plant); for pest or weed control at 62.5 g/ha: 62.5 g ai/ha; for pest or weed control at 62.5 g/ha / pest or weed control at 250 g/ha: evaluated after 13 days, 100=total damage to plant, 0=no damage to plant; for pest or weed control at 250 g/ha: 250 g ai/ha
Method in brief: (§2)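 A glasshouse post-emergence test: 8-day-old plants sprayed at 15.625, 62.5 or 250 g/ha, then grown at 24/16 °C day/night with 14 h light and 65% humidity. Damage rated 13 days later, 0–100.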

[8] = system: corn (Zea mays); assay: Test G Post-Emergence Protocol; conditions: Zea mays, post-emergence, 312 h, read-out: Corn damage rating; for plant injury at 15.625 g/ha: 15.625 g ai/ha, evaluated after 13 days (100=total damage to plant; 0=no damage to plant); for plant injury at 62.5 g/ha: 62.5 g ai/ha; for plant injury at 62.5 g/ha / plant injury at 250 g/ha: evaluated after 13 days, 100=total damage to plant, 0=no damage to plant; for plant injury at 250 g/ha: 250 g ai/ha
Method in brief: as §2

[9] = system: redroot pigweed (Amaranthus retroflexus); assay: Test G Post-Emergence Protocol; conditions: Amaranthus retroflexus, post-emergence, 312 h, read-out: Pigweed, Redroot damage rating; for pest or weed control at 15.625 g/ha: 15.625 g ai/ha, evaluated after 13 days (100=total damage to plant; 0=no damage to plant); for pest or weed control at 62.5 g/ha: 62.5 g ai/ha; for pest or weed control at 62.5 g/ha / pest or weed control at 250 g/ha: evaluated after 13 days, 100=total damage to plant, 0=no damage to plant; for pest or weed control at 250 g/ha: 250 g ai/ha
Method in brief: as §2

[10] = system: giant foxtail (Setaria faberi); assay: Test G Post-Emergence Protocol; conditions: Setaria faberi, post-emergence, 312 h, read-out: Foxtail, Giant damage rating; for pest or weed control at 15.625 g/ha: 15.625 g ai/ha, evaluated after 13 days (100=total damage to plant; 0=no damage to plant); for pest or weed control at 62.5 g/ha: 62.5 g ai/ha; for pest or weed control at 62.5 g/ha / pest or weed control at 250 g/ha: evaluated after 13 days, 100=total damage to plant, 0=no damage to plant; for pest or weed control at 250 g/ha: 250 g ai/ha
Method in brief: as §2

[11] = system: barnyardgrass (Echinochloa crus-galli); assay: Test G Post-Emergence Protocol; conditions: Echinochloa crus-galli, post-emergence, 312 h, read-out: Barnyardgrass damage rating; for pest or weed control at 15.625 g/ha: 15.625 g ai/ha, evaluated after 13 days (100=total damage to plant; 0=no damage to plant); for pest or weed control at 62.5 g/ha: 62.5 g ai/ha; for pest or weed control at 62.5 g/ha / pest or weed control at 250 g/ha: evaluated after 13 days, 100=total damage to plant, 0=no damage to plant; for pest or weed control at 250 g/ha: 250 g ai/ha
Method in brief: as §2

[12] = system: ivy-leaved morning glory (Ipomoea hederacea); assay: Test G Post-Emergence Protocol; conditions: Ipomoea, post-emergence, 312 h, read-out: Morningglory, Ivy-leaved damage rating; for pest or weed control at 15.625 g/ha: 15.625 g ai/ha, evaluated after 13 days (100=total damage to plant; 0=no damage to plant); for pest or weed control at 62.5 g/ha: 62.5 g ai/ha; for pest or weed control at 62.5 g/ha / pest or weed control at 250 g/ha: evaluated after 13 days, 100=total damage to plant, 0=no damage to plant; for pest or weed control at 250 g/ha: 250 g ai/ha
Method in brief: as §2

Structure (SMILES) | pest or weed control at 15.625 g/ha [1] [%] | pest or weed control at 62.5 g/ha [1] [%] | pest or weed control at 250 g/ha [1] [%] | plant injury at 15.625 g/ha [2] [%] | plant injury at 62.5 g/ha [2] [%] | plant injury at 250 g/ha [2] [%] | pest or weed control at 15.625 g/ha [3] [%] | pest or weed control at 62.5 g/ha [3] [%] | pest or weed control at 250 g/ha [3] [%] | pest or weed control at 15.625 g/ha [4] [%] | pest or weed control at 62.5 g/ha [4] [%] | pest or weed control at 250 g/ha [4] [%] | pest or weed control at 15.625 g/ha [5] [%] | pest or weed control at 62.5 g/ha [5] [%] | pest or weed control at 250 g/ha [5] [%] | pest or weed control at 62.5 g/ha [6] [%] | pest or weed control at 250 g/ha [6] [%] | pest or weed control at 15.625 g/ha [7] [%] | pest or weed control at 62.5 g/ha [7] [%] | pest or weed control at 250 g/ha [7] [%] | other results
Cc1cc(C2CN(C)C(=O)C2C(=O)Nc2cccc(F)c2F)cc(C)c1Cl (centres unmarked) [Compound 1700] | 0 | 0 | 0 | 0 | 0 | 30 | 0 | 0 | 0 | 40 | 80 | 90 | 20 | 50 | 70 | 10 | 20 | 0 | 0 | 0 | plant injury at 15.625 g/ha [8]: 30%; plant injury at 62.5 g/ha [8]: 30%; plant injury at 250 g/ha [8]: 40%; pest or weed control at 15.625 g/ha [9]: 0%; pest or weed control at 62.5 g/ha [9]: 0%; pest or weed control at 250 g/ha [9]: 0%; pest or weed control at 15.625 g/ha [10]: 40%; pest or weed control at 62.5 g/ha [10]: 60%; pest or weed control at 250 g/ha [10]: 70%; pest or weed control at 15.625 g/ha [11]: 20%; pest or weed control at 62.5 g/ha [11]: 50%; pest or weed control at 250 g/ha [11]: 70%; pest or weed control at 15.625 g/ha [12]: 20%; pest or weed control at 62.5 g/ha [12]: 20%; pest or weed control at 250 g/ha [12]: 60%
COc1cc(C2CN(C)C(=O)C2C(=O)Nc2cccc(F)c2F)cc(Cl)c1OC (centres unmarked) [Compound 1704] | 0 | 0 | 10 | 0 | 50 | 80 | 0 | 20 | 0 | 50 | 80 | 80 | 40 | 70 | 80 | 0 | 30 | 0 | 0 | 20 | pest or weed control at 15.625 g/ha [6]: 0%; plant injury at 15.625 g/ha [8]: 0%; plant injury at 62.5 g/ha [8]: 20%; plant injury at 250 g/ha [8]: 80%; pest or weed control at 15.625 g/ha [9]: 0%; pest or weed control at 62.5 g/ha [9]: 10%; pest or weed control at 250 g/ha [9]: 10%; pest or weed control at 15.625 g/ha [10]: 70%; pest or weed control at 62.5 g/ha [10]: 80%; pest or weed control at 250 g/ha [10]: 80%; pest or weed control at 15.625 g/ha [11]: 40%; pest or weed control at 62.5 g/ha [11]: 70%; pest or weed control at 250 g/ha [11]: 80%; pest or weed control at 15.625 g/ha [12]: 30%; pest or weed control at 62.5 g/ha [12]: 20%; pest or weed control at 250 g/ha [12]: 70%
COc1cc(C2CN(C)C(=O)C2C(=O)Nc2cccc(F)c2F)cc(F)c1F (centres unmarked) [Compound 1706] | 0 | 0 | 10 | 0 | 10 | 40 | 0 | 0 | 20 | 50 | 70 | 90 | 40 | 60 | 80 | 0 | 0 | 0 | 20 | 20 | pest or weed control at 15.625 g/ha [6]: 0%; plant injury at 15.625 g/ha [8]: 0%; plant injury at 62.5 g/ha [8]: 0%; plant injury at 250 g/ha [8]: 70%; pest or weed control at 15.625 g/ha [9]: 0%; pest or weed control at 62.5 g/ha [9]: 10%; pest or weed control at 250 g/ha [9]: 20%; pest or weed control at 15.625 g/ha [10]: 70%; pest or weed control at 62.5 g/ha [10]: 80%; pest or weed control at 250 g/ha [10]: 80%; pest or weed control at 15.625 g/ha [11]: 40%; pest or weed control at 62.5 g/ha [11]: 60%; pest or weed control at 250 g/ha [11]: 80%; pest or weed control at 15.625 g/ha [12]: 20%; pest or weed control at 62.5 g/ha [12]: 0%; pest or weed control at 250 g/ha [12]: 60%
